Common to all, as to assay type: in vivo
Assay [1] has as its system motor activity in mice. Kind of assay: Motor activity in mice (exploratory activity in locomotion cage). To be noted: for Motor Activity (+ = increase, - = decrease, 0 = no effect): recorded for ten minutes one hour after administration, compared to control groups. On the set-up: key to Motor Activity (+ = increase, - = decrease, 0 = no effect): + = increase; - = decrease; 0 = no effect. As for the experimental part: The lack of euphoric effects, that is lack of central stimulatory activity, is tested by measuring the motor activity in mice after administration of the test substance.
The exploratory activity of mice was recorded in a locomotion cage in which the movements were counted each time the animals cross-circuits an electrical current in the bottom plate. The activity was recorded for ten minutes one hour after the administration of the drug. The animals were tested individually. Groups of six mice were used and the mice were only used once. The activity was expressed in per cent of the activity of control groups ran simultaneously. The compounds were administered in at least four doses. The increase (+) or decrease (-) of the activity compared to control groups was determined from log dose response curves.

For assay [2], the system named is syndromes produced by 5-hydroxytryptophan (5-HTP). Kind of assay: 5-HTP response potentiation test. To be noted: Mus musculus, ip; mice; before dl-5-HTP 90 mg/kg i.v. The text has this:
It is not possible by experimental means to induce depressions in laboratory animals. In order to evaluate a possible anti depressive effect on new substances biochemical-pharmacological test methods must be resorted to. One such method, which seems to give a good indication of the potential anti depressive effects of the test substances, is described in Europ. J. Pharmacol. 17, 107, 1972. This method involves the measurement of the potentiation of the syndromes produced by 5-hydroxytryptophan (5-HTP) in a laboratory animal.
5-HTP response potantiation test
Inhibition of the uptake of 5-HT potentiates the effects of administered 5-hydroxytryptophan (5-HTP) probably by increasing the amount of 5-HT at the receptor. Three mice are given the test drugs 1 hour (or 4, 24 hours) before dl-5-HTP, 90 mg/kg i.v. 5-HTP alone gives only a weak behavioural syndrome but in pretreated mice there is seen a characteristic behavioural syndrome, which comes within five minutes: tremor, lordosis, abduction of the hindlegs, head-twitches.
The absence or presence of respective syndrome is scored in groups of ten mice. The compound was administered in at least five doses and the quantal responses were analysed by probit analysis and ED50 determined according to the method of Litchfield and Wilcoxon.

The test system of assay [3] is aggressive behaviour in mice. Put plainly: Aggressive behaviour in isolated male mice (antiaggressivity). To be noted: Mus musculus, ip, dose which reduces aggressiveness score by 50%, read-out: Antiaggressive behaviour in mice ED50. Here is the method:
Potential anxiolytic activity is tested by measuring the antiaggressivity in isolated mice after administration of the test substance. In this test not amphetamine but Valium -- a well-known anxiolytic substance -- is used as a reference.
Aggressive behaviour in mice
Male mice kept isolated for 3 weeks or longer develop an aggressive behavior when caged together. The method used follows that of Valzelli et al. (Europ. J. Pharmacol. 2, 144, 1967), with the exception that 2 mice were tested on each other. The aggressiveness was scored during a 5 min test according to the following schedule:
0 the animals show no interest in each other except occasional nosing
25 frequent vigorous nosing and tail rattling, the animals assume a fighting position and occassionally attack each other -- no more than 3-4 times in the 5 min period
50 tail rattling, powerful attacks -- no more than 10 times in the test period
75 the animals follow their partners, attacking and biting for most of the time
100 attacks over the entire period.
The animals were used for several experiments but with intervals of at least one week. Groups of 10 mice were used.
ED50 is the dose which reduces the aggressiveness score by 50%.

Broadly, the ED50 is the dose that gives a 50% effect, or the effect in half of the subjects. Consider `CN(C)c1ccc(CC(C)(C)N)cc1.Cl.Cl` [H H CH3 CH3 CH3 CH3], for which the “Motor Activity (+ = increase, - = decrease, 0 = no effect)” value in assay [1] is given as 0. Further, the ED50 in assay [2] was found to be 2.5 mg/kg.
Consider `CN1C(=O)CN=C(c2ccccc2)c2cc(Cl)ccc21` [Valium, reference compound], for which the ED50 in assay [3] stood at 2.5 mg/kg.
Regarding `CCN(C)c1ccc(CC(C)N)cc1` (centres unmarked) [H H C2 H5 CH3 H CH3], the ED50 is less than 5 mg/kg in assay [3] and 0.7 mg/kg in assay [2].
`CC(N)Cc1ccc(N)cc1` (centres unmarked) [p-Aminoamphetamine, reference compound]: the ED50 in assay [2] was found to be 11.5 mg/kg.
For the molecule `CC(N)Cc1ccc(N(C)C)cc1Cl.Cl.Cl` (centres unmarked) [H 2-Cl CH3 CH3 H CH3], the “Motor Activity (+ = increase, - = decrease, 0 = no effect)” value in assay [1] is “-”. For the same molecule, the ED50 in assay [3] is 2.5 to 5 mg/kg; in assay [2], 0.25 mg/kg.
Regarding `Cc1cc(N(C)C)ccc1CC(C)N.Cl.Cl` (centres unmarked) [H 2-CH3 CH3 CH3 H CH3], the “Motor Activity (+ = increase, - = decrease, 0 = no effect)” value in assay [1] is “-”. Further, the results for the ED50 in assay [3] and in assay [2] were 2.5 to 5 mg/kg and 0.6 mg/kg, respectively.
In the case of `CCN(CC)c1ccc(CC(C)N)cc1` (centres unmarked) [H H C2 H5 C2 H5 H CH3], the “Motor Activity (+ = increase, - = decrease, 0 = no effect)” value in assay [1] was “-”. Further, the ED50 in assay [3] is 5 to 10 mg/kg; in assay [2] it was 2 mg/kg.
Turning to `CC(N)Cc1c(Cl)cc(N(C)C)cc1Cl.Cl.Cl` (centres unmarked) [2-Cl 6-Cl CH3 CH3 H CH3], in assay [1], the “Motor Activity (+ = increase, - = decrease, 0 = no effect)” value is recorded as “-”. For the same molecule, the ED50 was greater than 5 mg/kg in assay [3] and 0.1 mg/kg in assay [2].
Take `CC(N)Cc1ccc(N(C)C)c(Br)c1.Cl.Cl` (centres unmarked) [H 3-Br CH3 CH3 H CH3]: the ED50 is greater than 5 mg/kg in assay [3] and 1 mg/kg in assay [2].
For `CC(N)Cc1ccc(N(C)C)cc1Br.Cl.Cl` (centres unmarked) [H 2-Br CH3 CH3 H CH3], the ED50 in assay [2] came out at 0.1 mg/kg.
In the case of `CC(N)Cc1ccc2c(c1)CCCN2C.Cl.Cl` (centres unmarked) [H H CH3 (CH2)3 H CH3, 6-(2-AMINOPROPYL)-1-METHYL-1, 2, 3, 4-TETRAHYDROQUINOLINE DIHYDROCHLORIDE], the ED50 in assay [3] was greater than 5 mg/kg; in assay [2] it was 1.5 mg/kg.
`CC(N)Cc1ccc(Cl)cc1` (centres unmarked) [p-Chloroamphetamine, reference compound]: the “central stimulation (in words)” value in assay [1] is recorded as “pronounced”. Besides, the results for the ED50 in assay [3] and in assay [2] were 0.3 mg/kg and 0.8 mg/kg, respectively.
Take `CC(N)Cc1ccccc1` (centres unmarked) [Amphetamine]: the “central stimulation (in words)” value in assay [1] is “pronounced”. Besides, in assay [2], the ED50 is greater than 5 mg/kg.
As for `CCC(N)Cc1ccc(N(C)C)cc1Cl` (centres unmarked) [H 2-Cl CH3 CH3 H C2 H5], the “Motor Activity (+ = increase, - = decrease, 0 = no effect)” value in assay [1] was found to be 0. The ED50 in assay [2] came out at 0.25 mg/kg.
On to `CCNc1ccc(CC(C)N)cc1.Cl.Cl` (centres unmarked) [H H C2 H5 H H CH3], for which the ED50 in assay [3] stood at 1.25 mg/kg; in assay [2] it was 1 mg/kg.

The values above are taken from patent US3996381A, “Amphetamine derivatives” (Astra Lakemedel Aktiebolag, priority 1973, dated 1976).
